Our source for the EC50 values is US12409171B2, “Pharmaceutically active pyrazolo-pyridone modulators of DCN1/2-mediated cullin neddylation” (UNIVERSITY OF KENTUCKY RESEARCH FOUNDATION, priority 2019, dated 2025).

DCN1, sequence (Q96GG9 whole entry): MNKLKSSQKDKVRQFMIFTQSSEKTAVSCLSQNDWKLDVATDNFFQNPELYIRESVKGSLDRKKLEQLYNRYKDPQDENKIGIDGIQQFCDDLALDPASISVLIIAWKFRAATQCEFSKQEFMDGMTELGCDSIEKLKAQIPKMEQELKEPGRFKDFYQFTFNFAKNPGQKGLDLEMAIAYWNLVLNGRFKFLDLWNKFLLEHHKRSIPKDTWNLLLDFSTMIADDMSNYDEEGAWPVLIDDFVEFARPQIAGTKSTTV

The target in this experiment is DCN1 (Homo sapiens (Human), UniProt Q96GG9). Put plainly: TR-FRET binding assay (biotin-DCN1 / Ac-UBE2M12-AlexaFluor488). To be noted: mean ± SD (n); read-out: DCN1_TRFRET Mean EC50. The method, then:
• IC50 values were generated using our TR-FRET binding assay and are represented as the mean of three replicates with errors reported as the standard deviation.
The assay cocktail was then incubated for 1 h at room temperature and distributed using a WellMate instrument (Matrix). Compounds to be screened were added to assay plates from DMSO stock solutions by pin transfer using 50SS pins (V&P Scientific). […] All compounds were tested in triplicate or more.
(Time-resolved FRET reads energy transfer from a long-lived donor to a nearby acceptor.)
Consider `Cc1cccc(C(=O)N[C@@H]2CNc3c(c(C)nn3-c3ccccc3)[C@@H]2c2ccc(F)cc2)c1` [RG-0009506, N-[(4S,5S)-4-(4-fluorophenyl)-3-methyl-1-phenyl-1H,4H,5H,6H,7H-pyrazolo[3,4-b]pyridin-5-yl]-3-methylbenzamide], for which the EC50 was over 36500 nM.
For `CCN1C(=O)[C@@H](NC(=O)c2cccc(C(F)(F)F)c2)[C@@H](c2ccc(F)cc2)c2c(CNCCN)nn(-c3ccccc3)c21` [RG-0014149, N-[(4S,5S)-3-{[(2-aminoethyl)amino]methyl}-7-ethyl-4-(4-fluorophenyl)-6-oxo-1-phenyl-1H,4H,5H,6H,7H-pyrazolo[3,4-b]pyridin-5-yl]-3-(trifluoromethyl)benzamide] the value was 126 ± 12.1 nM; for `Cc1nn(-c2ccccc2)c2c1[C@H](c1ccc(F)cc1)[C@H](NC(=O)c1cccc(C(F)(F)F)c1)C(=O)N2C1CCC1` [RG-0013050, N-[(4S,5S)-7-cyclobutyl-4-(4-fluorophenyl)-3-methyl-6-oxo-1-phenyl-1H,4H,5H,6H,7H-pyrazolo[3,4-b]pyridin-5-yl]-3-(trifluoromethyl)benzamide], 2580 ± 247 nM.
For `CCN1C(=O)[C@@H](NC(=O)c2cccc(C)c2)[C@@H](C(C)C)c2c(C)nn(-c3ccccc3)c21` [RG-0008876, N-[(4S,5S)-7-ethyl-3-methyl-6-oxo-1-phenyl-4-(propan-2-yl)-1H,4H,5H,6H,7H-pyrazolo[3,4-b]pyridin-5-yl]-3-methylbenzamide], the EC50 stood at 1750 ± 165 nM.
For `CCN1C(=O)[C@@H](NC(=O)c2cccc(C)c2)[C@@H](c2ccc(F)cc2)c2c(C)nn(-c3ccccc3F)c21` [RG-0008870, N-[(4S,5S)-7-ethyl-1-(2-fluorophenyl)-4-(4-fluorophenyl)-3-methyl-6-oxo-1H,4H,5H,6H,7H-pyrazolo[3,4-b]pyridin-5-yl]-3-methylbenzamide] the value was 187 ± 5.73 nM.
For `Cc1nn(-c2ccccc2)c2c1[C@H](c1ccc(F)cc1)[C@H](NC(=O)c1cccc(C(F)(F)F)c1)C(=O)N2CO` [RG-0013981, N-[(4S,5S)-4-(4-fluorophenyl)-7-(hydroxymethyl)-3-methyl-6-oxo-1-phenyl-1H,4H,5H,6H,7H-pyrazolo[3,4-b]pyridin-5-yl]-3-(trifluoromethyl)benzamide] the value was over 36500 nM; for `CCN1C(=O)[C@@H](NC(=O)c2cccc(C(F)(F)F)c2)[C@@H](c2ccc(F)cc2)c2c(CN(C)C)nn(-c3ccccc3)c21` [RG-0014053, N-[(4S,5S)-3-[(dimethylamino)methyl]-7-ethyl-4-(4-fluorophenyl)-6-oxo-1-phenyl-1H,4H,5H,6H,7H-pyrazolo[3,4-b]pyridin-5-yl]-3-(trifluoromethyl)benzamide], 90.7 ± 4.38 nM.
The result for `CCN1C(=O)[C@@H](NC(=O)c2cccc(F)c2)[C@@H](c2ccc(F)cc2)c2c(C)nn(-c3ccccc3)c21` [RG-0013062, N-[(4S,5S)-7-ethyl-4-(4-fluorophenyl)-3-methyl-6-oxo-1-phenyl-1H,4H,5H,6H,7H-pyrazolo[3,4-b]pyridin-5-yl]-3-fluorobenzamide] reads 1810 ± 153 nM; that for `CCN1C(=O)[C@@H](NC(=O)c2cccc(C(F)(F)F)c2)[C@@H](c2ccc(F)cc2)c2c(CNC(=O)CCCC[C@@H]3SC[C@@H]4NC(=O)N[C@@H]43)nn(-c3ccccc3)c21` [RG-0014155, N-[(4S,5S)-3-({5-[(3aS,4S,6aR)-2-oxo-hexahydro-1H-thieno[3,4-d]imidazol-4-yl]pentanamido}methyl)-7-ethyl-4-(4-fluorophenyl)-6-oxo-1-phenyl-1H,4H,5H,6H,7H-pyrazolo[3,4-b]pyridin-5-yl]-3-(trifluoromethyl)benzamide], 123 ± 22.5 nM.
`CCN1C(=O)[C@@H](NC(=O)c2cccc(C)c2F)[C@@H](c2ccc(F)cc2)c2c(C)nn(-c3ccccc3)c21` [RG-0014165, N-[(4S,5S)-7-ethyl-4-(4-fluorophenyl)-3-methyl-6-oxo-1-phenyl-1H,4H,5H,6H,7H-pyrazolo[3,4-b]pyridin-5-yl]-2-fluoro-3-methylbenzamide]: the EC50 was determined as 541 ± 68.1 nM.
With `CCN1C(=O)[C@@H](NC(=O)c2cccc(C(F)(F)F)c2)[C@@H](c2ccc(C)s2)c2c(C)nn(-c3ccccc3)c21` [RG-0014004, N-[(4S,5S)-7-ethyl-3-methyl-4-(5-methylthiophen-2-yl)-6-oxo-1-phenyl-1H,4H,5H,6H,7H-pyrazolo[3,4-b]pyridin-5-yl]-3-(trifluoromethyl)benzamide], the EC50 is 1410 ± 15.9 nM.
On to `CCN1C(=O)[C@@H](NC(=O)c2cccc(C(F)(F)F)c2)[C@@H](c2ccc(F)cc2)c2c(CN3CCC(F)CC3)nn(-c3ccccc3)c21` [RG-0014147, N-[(4S,5S)-7-ethyl-4-(4-fluorophenyl)-3-[(4-fluoropiperidin-1-yl)methyl]-6-oxo-1-phenyl-1H,4H,5H,6H,7H-pyrazolo[3,4-b]pyridin-5-yl]-3-(trifluoromethyl)benzamide], for which the half-maximal effective concentration (EC50) is 112 ± 16 nM.
For `CCN1C(=O)[C@@H](NC(=O)c2cccc([N+](=O)[O-])c2)[C@@H](c2ccc(F)cc2)c2c(C)nn(-c3ccccc3)c21` [RG-0013844, N-[(4S,5S)-7-ethyl-4-(4-fluorophenyl)-3-methyl-6-oxo-1-phenyl-1H,4H,5H,6H,7H-pyrazolo[3,4-b]pyridin-5-yl]-3-nitrobenzamide] the value was 1980 ± 134 nM; for `CCN1C(=O)[C@@H](NC(=O)c2cccc(C(F)(F)F)c2)[C@@H](c2ccc(F)cc2)c2c(C)nn(-c3cccc(C)c3)c21` [RG-0014035, N-[(4S,5S)-7-ethyl-4-(4-fluorophenyl)-3-methyl-1-(3-methylphenyl)-6-oxo-1H,4H,5H,6H,7H-pyrazolo[3,4-b]pyridin-5-yl]-3-(trifluoromethyl)benzamide], 388 ± 38.5 nM.
For `CCN1C(=O)[C@@H](NC(=O)c2cccc(C(F)(F)F)c2)[C@@H](c2ccc(F)cc2)c2c(COC(C)=O)nn(-c3ccccc3)c21` [RG-0013839, [(4S,5S)-7-ethyl-4-(4-fluorophenyl)-6-oxo-1-phenyl-5-[3-(trifluoromethyl)benzamido]-1H,4H,5H,6H,7H-pyrazolo[3,4-b]pyridin-3-yl]methyl acetate] the value was 116 ± 13.2 nM; for `CCN1C(=O)[C@@H](NC(=O)c2cccc(C(F)(F)F)c2)[C@@H](c2ccc(F)nc2)c2c(CO)nn(-c3ccccc3)c21` [RG-0013992, N-[(4S,5S)-7-ethyl-4-(6-fluoropyridin-3-yl)-3-(hydroxymethyl)-6-oxo-1-phenyl-1H,4H,5H,6H,7H-pyrazolo[3,4-b]pyridin-5-yl]-3-(trifluoromethyl)benzamide], 157 ± 19.2 nM; for `CCN1C(=O)[C@@H](NC(=O)c2cccc(C(F)(F)F)c2)[C@@H](c2ccc(F)cc2)c2c(CNCCNC(=O)OC(C)(C)C)nn(-c3ccccc3)c21` [RG-0014142, tert-butyl N-[2-({[(4S,5S)-7-ethyl-4-(4-fluorophenyl)-6-oxo-1-phenyl-5-[3-(trifluoromethyl)benzamido]-1H,4H,5H,6H,7H-pyrazolo[3,4-b]pyridin-3-yl]methyl}amino)ethyl]carbamate], 116 ± 17.5 nM.
For `CCCN1CCN2C(=O)[C@@H](NC(=O)c3cccc(C)c3)[C@@H](c3ccc(F)cc3)C(C(C)=O)=C12` [RG-0008677, N-[(6S,7S)-8-acetyl-7-(4-fluorophenyl)-5-oxo-1-propyl-1H,2H,3H,5H,6H,7H-imidazo[1,2-a]pyridin-6-yl]-3-methylbenzamide] the value was 5790 nM; for `CCN1C(=O)[C@@H](NC(=O)c2cccc(C(F)(F)F)c2)[C@@H](c2ccc(F)cc2)c2c(CN3CCCC3)nn(-c3ccccc3)c21` [RG-0014154, N-[(4S,5S)-7-ethyl-4-(4-fluorophenyl)-6-oxo-1-phenyl-3-[(pyrrolidin-1-yl)methyl]-1H,4H,5H,6H,7H-pyrazolo[3,4-b]pyridin-5-yl]-3-(trifluoromethyl)benzamide], 83.5 ± 9.39 nM; for `CCN1C(=O)[C@@H](NC(=O)c2ccc3ncsc3c2)[C@@H](c2ccc(F)cc2)c2c(C)nn(-c3ccccc3)c21` [RG-0014158, N-[(4S,5S)-7-ethyl-4-(4-fluorophenyl)-3-methyl-6-oxo-1-phenyl-1H,4H,5H,6H,7H-pyrazolo[3,4-b]pyridin-5-yl]-1,3-benzothiazole-6-carboxamide], 6310 ± 465 nM.
Consider `CCN1C(=O)[C@@H](NC(=O)c2cccc(C)c2)[C@@H](c2ccc(F)cc2)c2c(C)nn(CC(F)(F)F)c21` [RG-0008871, N-[(4S,5S)-7-ethyl-4-(4-fluorophenyl)-3-methyl-6-oxo-1-(2,2,2-trifluoroethyl)-1H,4H,5H,6H,7H-pyrazolo[3,4-b]pyridin-5-yl]-3-methylbenzamide], for which the concentration giving a half-maximal response (EC50) came to 729 ± 90.1 nM.
Consider `C=CC(=O)NCc1nn(-c2ccccc2)c2c1[C@H](c1ccc(F)cc1)[C@H](NC(=O)c1cccc(C(F)(F)F)c1)C(=O)N2CC` [RG-0014047, N-[(4S,5S)-7-ethyl-4-(4-fluorophenyl)-6-oxo-1-phenyl-3-[(prop-2-enamido)methyl]-1H,4H,5H,6H,7H-pyrazolo[3,4-b]pyridin-5-yl]-3-(trifluoromethyl)benzamide], for which the EC50 stood at 95.3 ± 4.67 nM.
The result for `CCN1C(=O)[C@@H](NC(=O)c2cccc(C(F)(F)F)c2)[C@@H](c2ccc(F)cc2)c2c(CNCC(F)(F)F)nn(-c3ccccc3)c21` [RG-0014145, N-[(4S,5S)-7-ethyl-4-(4-fluorophenyl)-6-oxo-1-phenyl-3-{[(2,2,2-trifluoroethyl)amino]methyl}-1H,4H,5H,6H,7H-pyrazolo[3,4-b]pyridin-5-yl]-3-(trifluoromethyl)benzamide] reads 161 ± 13.1 nM; that for `CCN1C(=O)[C@@H](NC(=O)c2cccc(C(F)(F)F)c2)[C@@H](c2ccc(F)cc2)c2c(CN3CCN(C(=O)OC(C)(C)C)CC3)nn(-c3ccccc3)c21` [RG-0014059, tert-butyl 4-{[(4S,5S)-7-ethyl-4-(4-fluorophenyl)-6-oxo-1-phenyl-5-[3-(trifluoromethyl)benzamido]-1H,4H,5H,6H,7H-pyrazolo[3,4-b]pyridin-3-yl]methyl}piperazine-1-carboxylate], 231 ± 16.5 nM.

As a reminder, the EC50 is the concentration giving half of the maximal effect.
